Laboratory results: US20240166660A1, “KRAS G12C INHIBITORS” (BeiGene Switzerland GmbH, priority 2021, published 2024)

Target: KRAS (aa 1-169) G12C, C51S, C80L, C118S (Homo sapiens (Human), UniProt P01116, C118S/C51S/C80L/G12C)
Assay: Biochemical functional assay: SOS1-mediated nucleotide exchange of GDP-loaded KRAS G12C, binding to GST-cRaf RBD, FRET readout
Conditions: 3 hrs pre-incubation with compound at 24° C., SOS1, GTPyS, inhibition of nucleotide exchange
Procedure: Biochemical Functional Assay
The KRAS (aa 1-169) G12C, C51S, C80L, C118S with a His-tag was expressed, purified and loaded with GDP in house. All protein and substrate solutions were prepared in assay buffer containing 25 mM HEPES pH7.5, 10 mM MgCl2, and 0.01% Triton X-100. Purified GDP-loaded KRAS (aa 1-169) G12C, C51S, C80L, C118S protein was pre-incubated with a serially diluted compound at 24° C. for 3 hrs. Purified SOS1 (aa 564-1049) protein, GTPyS (Sigma) and GST-cRaf RBD (aa 1-149) were then added to each well and incubated at 24° C. for additional 3 hrs. […] Following the incubation, Mab Anti-6HIS-T cryptate (Cisbio) and Mab Anti GST-XL665 (Cisbio) were added and further incubated at 24° C. for 3 hrs. The binding interaction between active GTPyS KRAS G12C and GST-cRaf RBD brings the Tb and XL665 into close proximity enabling an increased FRET signal (Ex337 nm, Em665 nm/620 nm). The inhibition percentage of nucleotide exchange reaction in presence of increasing concentrations of compounds was calculated based on the ratio of fluorescence at 665 nm to that at 620 nm detected on a BMG PHERAstar FSX instrument. The IC50 value of each compound was calculated from fitting the data to the four-parameter logistic model by Dotmatics.

KRAS (aa 1-169) G12C, C51S, C80L, C118S, sequence (P01116 other isoform, or with tags, fused parts or gaps G12C/C51S/C80L/C118S): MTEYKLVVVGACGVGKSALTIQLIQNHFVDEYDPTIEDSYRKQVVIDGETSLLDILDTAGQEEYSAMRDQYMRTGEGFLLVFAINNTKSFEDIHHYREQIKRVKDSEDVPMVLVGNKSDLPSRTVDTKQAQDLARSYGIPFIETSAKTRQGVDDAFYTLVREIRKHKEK

| Structure (SMILES) | IC50 |
| --- | --- |
| C=CC(=O)N1CCN(c2ncnc3cc(-c4cc(F)cc5[nH]ncc45)c4c(c23)OCCC4)C[C@@H]1CC#N [Compound A16, (S)-2-(1-acryloyl-4-(5-(6-fluoro-1H-indazol-4-yl)-3,4-dihydro-2H-pyrano[2,3-f]quinazolin-10-yl)piperazin-2-yl)acetonitrile] | 89.8 nM |
| C=CC(=O)N1CCN(c2ncnc3cc(-c4c(Cl)c(F)cc5[nH]ncc45)c4c(c23)OCCC4)C[C@@H]1CC#N [Compound A17, 2-((2S)-1-acryloyl-4-(5-(5-chloro-6-fluoro-1H-indazol-4-yl)-3,4-dihydro-2H-pyrano[2,3-f]quinazolin-10-yl)piperazin-2-yl)acetonitrile] | 31.7 nM |
| C=CC(=O)N1CCN(c2ncnc3cc(-c4cc(C(F)(F)F)cc5[nH]ncc45)c4c(c23)OCCC4)C[C@@H]1CC#N [Compound A18, (S)-2-(1-acryloyl-4-(5-(6-(trifluoromethyl)-1H-indazol-4-yl)-3,4-dihydro-2H-pyrano[2,3-f]quinazolin-10-yl)piperazin-2-yl)acetonitrile] | 37.8 nM |
| C=CC(=O)N1CCN(c2ncnc3cc(-c4c(Cl)c(F)cc5[nH]ncc45)c4c(c23)OCCC4)CC1 [Compound A19, 1-(4-(5-(5-chloro-6-fluoro-1H-indazol-4-yl)-3,4-dihydro-2H-pyrano[2,3-f]quinazolin-10-yl)piperazin-1-yl)prop-2-en-1-one] | 691 nM |
| C=CC(=O)N1CCN(c2ncnc3cc(-c4c(Cl)c(C)cc5[nH]ncc45)c4c(c23)OCCC4)C[C@@H]1CC#N [Compound A20, 2-((2S)-1-acryloyl-4-(5-(5-chloro-6-methyl-1H-indazol-4-yl)-3,4-dihydro-2H-pyrano[2,3-f]quinazolin-10-yl)piperazin-2-yl)acetonitrile] | 14.9 nM |
| C=CC(=O)N1CCN(c2ncnc3cc(-c4ccc(O)c5ccccc45)c4c(c23)OCCC4)C[C@@H]1CC#N [Compound A21, (S)-2-(1-acryloyl-4-(5-(4-hydroxynaphthalen-1-yl)-3,4-dihydro-2H-pyrano[2,3-f]quinazolin-10-yl)piperazin-2-yl)acetonitrile] | 5 nM |
| C=CC(=O)N1CCN(c2ncnc3cc(-c4cnc(N)cc4C(F)(F)F)c4c(c23)OCCC4)C[C@@H]1CC#N [Compound A22, (S)-2-(1-acryloyl-4-(5-(6-amino-4-(trifluoromethyl)pyridin-3-yl)-3,4-dihydro-2H-pyrano[2,3-f]quinazolin-10-yl)piperazin-2-yl)acetonitrile] | 256 nM |
| C=C(F)C(=O)N1CCN(c2ncnc3cc(-c4c(Cl)c(C)cc5[nH]ncc45)c4c(c23)OCCC4)C[C@@H]1CC#N [Compound A23, 2-((2S)-4-(5-(5-chloro-6-methyl-1H-indazol-4-yl)-3,4-dihydro-2H-pyrano[2,3-f]quinazolin-10-yl)-1-(2-fluoroacryloyl)piperazin-2-yl)acetonitrile] | 346 nM |
| C=CC(=O)N1CCN(c2ncnc3cc(-c4c(C)cccc4C)c4c(c23)OCCC4)C[C@@H]1CC#N [Compound A24, (S)-2-(1-acryloyl-4-(5-(2,6-dimethylphenyl)-3,4-dihydro-2H-pyrano[2,3-f]quinazolin-10-yl)piperazin-2-yl)acetonitrile] | 262 nM |
| C=CC(=O)N1CCN(c2ncnc3cc(-c4c(C)c(C)cc5[nH]ncc45)c4c(c23)OCCC4)C[C@@H]1CC#N [Compound A25, 2-((2S)-1-acryloyl-4-(5-(5,6-dimethyl-1H-indazol-4-yl)-3,4-dihydro-2H-pyrano[2,3-f]quinazolin-10-yl)piperazin-2-yl)acetonitrile] | 15.5 nM |
| C=CC(=O)N1CCN(c2ncnc3cc(-c4c(C)c(Cl)cc5[nH]ncc45)c4c(c23)OCCC4)C[C@@H]1CC#N [Compound A26, 2-((2S)-1-acryloyl-4-(5-(6-chloro-5-methyl-1H-indazol-4-yl)-3,4-dihydro-2H-pyrano[2,3-f]quinazolin-10-yl)piperazin-2-yl)acetonitrile] | 9.9 nM |
